Results on 3 compounds are retold here after patent EP0745595A1, “3-(3-Aryloxyphenyl)-1-(substituted methyl)-s-triazine-2,4,6-oxo or thiotrione herbicidal agents” (American Cyanamid Company, priority 1995, dated 1996).

Format in all cases: in vivo
In series [1] the test system is GALIUM APARINE. The series can be described thus: Preemergence herbicidal evaluation, GALAP (Galium). Conditions: rated four to five weeks after treatment. From the text:
(§1) Results of herbicide evaluation are expressed on a rating scale (0-9). The scale is based upon a visual observation of plant stand, vigor, malformation, size, chlorosis and overall plant appearance as compared with a control.
(§2) The preemergence herbicidal activity of the test compounds of the present invention is exemplified by the following tests in which the seeds of a variety of monocotyledonous and dicotyledonous plants are separately mixed with potting soil and planted on top of approximately one inch of soil in separate pint cups. […] The treated cups are then placed on greenhouse benches, watered and cared for in accordance with conventional greenhouse procedures. From four to five weeks after treatment, the tests are terminated and each cup is examined and rated according to the rating system provided in Example 40.
(§3) The compounds evaluated are reported by compound number given in Example 40.

The subject of series [2] is […], PRESL. Nature of the series: Preemergence weed control under flooded paddy conditions, MOOVA (Monochoria). The settings on record: preemergence, 3-4 weeks after treatment. The procedure, abridged: (§4)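 Visual 0-9 rating against untreated control, covering stand, vigor, malformation, size and chlorosis, scored three to four weeks post-treatment in a greenhouse. Application was into 1.5-3 cm flood water over silt loam sown at 0.5 cm. The 50/50 v/v aqueous/acetone doses were about 0.5, 0.25, 0.125 and 0.063 kg/ha.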

Series [3] has as its system ECHINOCHLOA CRUS-GALLI, (L) BEAU. Nature of the series: Preemergence herbicidal evaluation, ECHCG (Barnyardgrass). The settings on record: rated four to five weeks after treatment.
Source text: as §1, §2, §3

Series [4] has as its system ORYZA SATIVA, L. TEBONNET
The series can be described thus: Rice tolerance to post-transplant applications under flooded paddy conditions, ORYSAT (Rice, Tebonnet). Conditions: post-transplant rice, 3-4 weeks after treatment. The essentials: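 Rated on a visual 0–9 scale against untreated plants 3–4 weeks after application, rice (cv. Tebonnet) tolerance was tested by applying compounds (approx. 0.5–0.063 kg/ha, acetone/water 50/50) to flooded soil three days post-transplant, water kept 1.5–3 cm deep.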

For series [5], the system named is CHENOPODIUM ALBUM, L. Nature of the series: Preemergence herbicidal evaluation, CHEAL (Lambsquarters, Common). Conditions: rated four to five weeks after treatment. The essentials:
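Injury scored visually (0–9; stand, vigor, malformation, size, chlorosis) versus untreated control, four to five weeks post-treatment. Application: aqueous acetone spray onto freshly planted soil cups, equivalent to about 0.125 to 0.50 kg/ha, plants then kept under standard greenhouse care.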

The subject of series [6] is ECHINOCHLOA ORYZOIDES (ARD.)FRITSCH. The series can be described thus: Preemergence weed control under flooded paddy conditions, ECHORC (Watergrass (Calif.)). The settings on record: preemergence, 3-4 weeks after treatment. The essentials: as §4
Series [7] deals with ZEA MAYS L. The series can be described thus: Preemergence herbicidal evaluation, ZEAMX (Corn, Field). Conditions: rated four to five weeks after treatment.
Source text: as §1, §2, §3

Series [8] concerns ABUTILON THEOPHRASTI, MEDIC. The series can be described thus: Postemergence herbicidal evaluation, ABUTH (Velvetleaf). Conditions: rated four to five weeks after treatment, averaged. The procedure, abridged: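 This postemergence herbicide test used two-week-old velvetleaf seedlings grown in jiffy flats. Each compound was sprayed at 40 psi as a dispersion in 50/50 acetone/water with 0.5% TWEEN®20 surfactant. Plants then received routine greenhouse care. After four to five weeks, injury was scored visually on a 0-9 scale against a control, and replicate tests were averaged.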

Series [9] relates to CASSIA OBTUSIFOLIA, L. The series can be described thus: Preemergence herbicidal evaluation, CASOB (Sicklepod). The settings on record: Rate 0.500 kg/ha, rated four to five weeks after treatment.
Source text: as §1, §2, §3

Series [10] deals with SAGITTARIA PYGMAEA, L. Nature of the series: Preemergence weed control under flooded paddy conditions, SAGPY (Arrowhead (Pygmaea)). Conditions: preemergence, 3-4 weeks after treatment. The procedure, abridged:
as §4

Series [11] concerns CYPERUS SEROTINUS, ROTTB. The series can be described thus: Preemergence weed control under flooded paddy conditions, CYPSE (Flatsedge). The settings on record: preemergence, 3-4 weeks after treatment. The procedure, abridged: as §4

Regarding `Cn1c(=O)n(CC(=O)OC(C)(C)C)c(=O)n(-c2cc(Oc3c(F)cc(C(F)(F)F)cc3Cl)ccc2[N+](=O)[O-])c1=O` [Compound 17, Tert-butyl 3-{5-[(2-chloro-α,α,α,6-tetra-fluoro-p-tolyl)oxy]-2-nitrophenyl}tetra-hydro-5-methyl-2,4,6-trioxo-s-triazine-1(2H)-acetate], the GALAP herbicidal rating in series [1] (Rate 0.125 kg/ha), in series [1] (Rate 0.250 kg/ha) and in series [1] (Rate 0.500 kg/ha) was 9.0 throughout. Further, the “Herbicidal effect rating, MOOVA” value in series [2] (0.125 kg/ha), in [2] (0.250 kg/ha) and in series [2] (0.500 kg/ha) was 9.0 throughout. Also, the ECHCG herbicidal rating in series [3] (Rate 0.125 kg/ha), in series [3] (Rate 0.250 kg/ha) and in [3] (Rate 0.500 kg/ha) was 0.0 in each case. Also, the “Herbicidal effect rating, ORYSAT” value was 3.0 in series [4] (0.125 kg/ha), 3.0 in [4] (0.250 kg/ha) and 2.0 in series [4] (0.500 kg/ha). For the same compound, the CHEAL herbicidal rating in series [5] (Rate 0.125 kg/ha), in [5] (Rate 0.250 kg/ha) and in series [5] (Rate 0.500 kg/ha) was 9.0 in each case. In addition, the “Herbicidal effect rating, ECHORC” value in [6] (0.125 kg/ha), in series [6] (0.250 kg/ha) and in series [6] (0.500 kg/ha) was 9.0 in each case. The ZEAMX herbicidal rating in series [7] (Rate 0.125 kg/ha), in series [7] (Rate 0.250 kg/ha) and in series [7] (Rate 0.500 kg/ha) was 0.0 in each case. The “ABUTH, herbicide rating (0-9)” value in series [8] (Rate 0.125 kg/ha), in series [8] (Rate 0.250 kg/ha) and in series [8] (Rate 0.500 kg/ha) was 9.0 in each case.
In turn, `COC(=O)Cn1c(=O)n(C)c(=O)n(-c2cc(Oc3cccc(Cl)c3Cl)ccc2[N+](=O)[O-])c1=O` [Compound 22, Methyl 3-[5-(2,3-dichlorophenoxy)-2-nitrophenyl]tetrahydro-5-methyl-2,4,6-trioxo-s-triazine-1(2H)-acetate] registered a GALAP herbicidal rating in series [1] (Rate 0.500 kg/ha) of 0.0. This compound also yielded a CASOB herbicidal rating in series [9] of 3.0. For the same compound, the “Herbicidal effect rating, SAGPY” value in series [10] (0.063 kg/ha), in series [10] (0.125 kg/ha), in [10] (0.250 kg/ha) and in series [10] (0.500 kg/ha) was 0.0 in each case. Also, the “Herbicidal effect rating, CYPSE” value in series [11] (0.063 kg/ha), in [11] (0.125 kg/ha), in series [11] (0.250 kg/ha) and in [11] (0.500 kg/ha) was 0.0 in each case. The “Herbicidal effect rating, ORYSAT” value came out at 0.0 in [4] (0.063 kg/ha), 0.0 in [4] (0.125 kg/ha), 0.0 in series [4] (0.250 kg/ha) and 2.0 in [4] (0.500 kg/ha).
`COC(=O)Cn1c(=O)n(C)c(=O)n(-c2cc(Oc3ccc(F)c(F)c3F)ccc2[N+](=O)[O-])c1=O` [Compound 27, Methyl tetrahydro-3-methyl-5-[2-nitro-5-(2,3,4-trifluorophenoxy)phenyl]-2,4,6-trioxo-s-triazine-1(2H)-acetate] showed a GALAP herbicidal rating in [1] (Rate 0.500 kg/ha) of 8.0. Also, in [9], the CASOB herbicidal rating was determined as 0.0. For the same compound, the “Herbicidal effect rating, SAGPY” value in [10] (0.063 kg/ha), in [10] (0.125 kg/ha), in series [10] (0.250 kg/ha) and in [10] (0.500 kg/ha) was 0.0 in each case. The “Herbicidal effect rating, CYPSE” value in series [11] (0.063 kg/ha), in series [11] (0.125 kg/ha), in series [11] (0.250 kg/ha) and in [11] (0.500 kg/ha) was 0.0 in each case. Also, the “Herbicidal effect rating, ORYSAT” value is reported as 0.0 in series [4] (0.063 kg/ha), 1.0 in series [4] (0.125 kg/ha), 2.0 in series [4] (0.250 kg/ha) and 1.5 in series [4] (0.500 kg/ha).
